Literature values in patent publication EP0268927A2, “Resin-coated, non-sorptive granular, pesticidal compositions and method for the preparation thereof” (priority 1986, dated 1988).

System: rats
Details: technical grade

CCOP(=S)(OCC)SCSCC [phorate, 0,0-diethyl-S-(ethylthiomethyl)phosphorodithioate]
acute oral LD50 value in rats: 1.6-3.7 mg technical/kg
